Consider 18 compounds from ChEMBL document CHEMBL1155992, “Bioisosteric replacement of the hydrazide pharmacophore of the cannabinoid-1 receptor antagonist SR141716A. Part I: potent, orally-active 1,4-disubstituted imidazoles” (Bioorg Med Chem Lett, 2009).

For data set [1], the target named is Cannabinoid receptor 1 (Rattus norvegicus, UniProt P20272). Put plainly: Displacement of [3H]SR141716A from rat brain CB1 receptor. For orientation: Loss of bound radioactivity is the signal in a displacement assay; it reports binding, not function.
Cannabinoid receptor 1 (Rattus norvegicus, UniProt P20272), sequence (P20272 whole entry): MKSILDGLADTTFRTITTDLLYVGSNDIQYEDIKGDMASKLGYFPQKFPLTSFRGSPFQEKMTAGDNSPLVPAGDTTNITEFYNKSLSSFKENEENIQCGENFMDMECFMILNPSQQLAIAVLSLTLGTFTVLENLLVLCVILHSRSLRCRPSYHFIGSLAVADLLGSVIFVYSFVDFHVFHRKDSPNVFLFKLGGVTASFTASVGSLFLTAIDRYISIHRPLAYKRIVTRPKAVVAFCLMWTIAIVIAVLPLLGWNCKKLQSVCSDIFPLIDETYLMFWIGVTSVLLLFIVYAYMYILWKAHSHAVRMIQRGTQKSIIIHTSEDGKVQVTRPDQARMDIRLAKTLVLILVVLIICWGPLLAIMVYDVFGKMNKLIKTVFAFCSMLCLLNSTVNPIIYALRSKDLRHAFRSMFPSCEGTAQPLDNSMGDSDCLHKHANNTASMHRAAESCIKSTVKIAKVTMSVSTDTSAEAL
Data set [2] has as its target Cannabinoid receptor 1 (Homo sapiens, UniProt P21554). Description: Antagonist activity at human CB1 receptor transfected in CHO-K1cells by GTPgamma[35S] binding assay. It counts as functional, cell-based, CHO-K1. (In general: GTPγS is a poorly hydrolysed GTP analogue; its binding reports G protein activation.)
For a further data set, the species on record is Homo sapiens. Description: Selectivity index, ratio of Ki for human CB2 receptor to Ki for human CB1 receptor.
A short description of data set [3]: Intrinsic clearance in human liver microsomes. It counts as ADME, Microsome. In general terms: Microsomes from liver hold many membrane-bound enzymes, among them those of drug oxidation.
For data set [4], the system named is Rattus norvegicus. Put plainly: Clearance in rat at 2 mg/kg, iv. The format is ADME, organism-based. Also on record: dose 2 mg/kg, route intravenous. Particulars: in vivo.
A short description of data set [5]: Half life in rat at 2 mg/kg, iv. It counts as ADME, organism-based. Also on record: dose 2 mg/kg, route intravenous. Particulars: in vivo.
A short description of data set [6]: Volume of distribution in rat at 2 mg/kg, iv. The format is ADME, organism-based. Also on record: dose 2 mg/kg, route intravenous. Conditions: in vivo.
Data set [7] is described as follows: Oral bioavailability in rat at 5 mg/kg. The format is ADME, organism-based. Conditions: in vivo.
The subject of data set [8] is Mus musculus. Put plainly: Analgesic activity in CP-55940-induced ICR mouse assessed as reduction in latency to jump, kick, lick, flick paw at 10 mg/kg, ip by hotplate assay. Details: scale not given: the % may be the effect or the level left. The format is functional. Conditions: route intraperitoneal.
The subject of data set [9] is Mus musculus. Put plainly: Effect on hypothermic activity in CP-55940-induced ICR mouse assessed as reduction in body temperature at 10 mg/kg, ip measured after 65 mins of CP-55940 challenge by tetrad assay. Also on record: scale not given: the % may be the effect or the level left. It counts as functional. Conditions: route intraperitoneal.
In data set [10] the test system is Rattus norvegicus. Put plainly: Antiobesity activity in overnight fasted Sprague-Dawley rat assessed as reduction in food intake in at 10 mg/kg, po. The format is functional. Also on record: scale not given: the % may be the effect or the level left.
The subject of data set [11] is Rattus norvegicus. Put plainly: Antiobesity activity in overnight fasted Sprague-Dawley rat assessed as reduction in food intake in at 3 mg/kg, po. Also on record: scale not given: the % may be the effect or the level left. The format is functional.
Another data set deals with Cytochrome P450 3A4 (Homo sapiens, UniProt P08684). Description: Inhibition of CYP3A4. It counts as ADME.
Cytochrome P450 3A4, sequence (P08684 whole entry): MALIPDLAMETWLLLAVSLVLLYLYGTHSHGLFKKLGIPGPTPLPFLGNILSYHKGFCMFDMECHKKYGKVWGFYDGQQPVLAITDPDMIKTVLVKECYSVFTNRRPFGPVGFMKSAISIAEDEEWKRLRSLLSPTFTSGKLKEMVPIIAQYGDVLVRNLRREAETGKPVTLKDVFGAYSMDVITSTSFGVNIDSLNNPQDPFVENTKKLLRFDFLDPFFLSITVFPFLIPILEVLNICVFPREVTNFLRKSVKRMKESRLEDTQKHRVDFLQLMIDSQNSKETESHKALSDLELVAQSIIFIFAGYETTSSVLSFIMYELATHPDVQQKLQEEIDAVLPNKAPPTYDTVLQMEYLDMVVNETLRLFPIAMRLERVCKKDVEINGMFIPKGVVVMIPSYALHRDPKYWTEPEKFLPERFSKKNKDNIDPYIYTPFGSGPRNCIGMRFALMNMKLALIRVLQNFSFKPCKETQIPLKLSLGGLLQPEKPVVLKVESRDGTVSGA
The next data set concerns the target T1, Cytochrome P450 1A2 (Homo sapiens, UniProt P05177).
T1 sequence (P05177 whole entry): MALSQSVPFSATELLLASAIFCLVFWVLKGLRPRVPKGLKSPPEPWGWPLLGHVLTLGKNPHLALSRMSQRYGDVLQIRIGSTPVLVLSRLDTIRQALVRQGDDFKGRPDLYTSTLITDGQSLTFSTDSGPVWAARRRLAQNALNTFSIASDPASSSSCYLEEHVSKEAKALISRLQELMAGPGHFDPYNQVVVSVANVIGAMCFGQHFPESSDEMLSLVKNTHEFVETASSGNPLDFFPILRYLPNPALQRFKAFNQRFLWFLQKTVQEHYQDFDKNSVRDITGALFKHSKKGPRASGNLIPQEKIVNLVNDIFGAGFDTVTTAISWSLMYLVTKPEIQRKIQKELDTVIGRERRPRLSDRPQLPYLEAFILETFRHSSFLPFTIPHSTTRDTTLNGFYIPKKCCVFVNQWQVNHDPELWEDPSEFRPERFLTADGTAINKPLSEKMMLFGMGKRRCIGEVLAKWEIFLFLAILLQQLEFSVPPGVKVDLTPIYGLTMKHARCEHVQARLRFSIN
Put plainly: Inhibition of CYP1A2. It counts as ADME.

Another data set concerns the target Cytochrome P450 2C9 (Homo sapiens, UniProt P11712). Put plainly: Inhibition of CYP2C9. It counts as ADME.
A further data set concerns the target Cytochrome P450 2C19 (Homo sapiens, UniProt P33261). Put plainly: Inhibition of CYP2C19. The format is ADME.
In the next data set the target is Cytochrome P450 2D6 (Homo sapiens, UniProt P10635). Put plainly: Inhibition of CYP2D6. It counts as ADME.
Cytochrome P450 2D6, sequence (P10635 whole entry): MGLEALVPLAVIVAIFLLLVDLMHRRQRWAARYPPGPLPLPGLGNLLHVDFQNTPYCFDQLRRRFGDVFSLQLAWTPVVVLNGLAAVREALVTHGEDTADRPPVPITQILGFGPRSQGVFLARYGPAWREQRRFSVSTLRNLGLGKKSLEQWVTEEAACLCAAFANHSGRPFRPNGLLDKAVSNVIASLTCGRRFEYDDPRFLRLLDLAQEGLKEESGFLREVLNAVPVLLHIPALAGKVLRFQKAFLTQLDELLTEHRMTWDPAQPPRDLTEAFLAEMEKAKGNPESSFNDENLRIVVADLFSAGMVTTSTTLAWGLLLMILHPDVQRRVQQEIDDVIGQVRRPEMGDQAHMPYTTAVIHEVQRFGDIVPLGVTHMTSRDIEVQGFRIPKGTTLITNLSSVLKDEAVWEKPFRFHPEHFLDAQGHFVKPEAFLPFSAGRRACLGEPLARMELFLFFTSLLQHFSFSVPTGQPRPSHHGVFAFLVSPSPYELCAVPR

Where only a bound is given, the exact number is not on record here.

Cannabinoid receptor 1 (Homo sapiens, UniProt P21554), sequence (P21554 whole entry): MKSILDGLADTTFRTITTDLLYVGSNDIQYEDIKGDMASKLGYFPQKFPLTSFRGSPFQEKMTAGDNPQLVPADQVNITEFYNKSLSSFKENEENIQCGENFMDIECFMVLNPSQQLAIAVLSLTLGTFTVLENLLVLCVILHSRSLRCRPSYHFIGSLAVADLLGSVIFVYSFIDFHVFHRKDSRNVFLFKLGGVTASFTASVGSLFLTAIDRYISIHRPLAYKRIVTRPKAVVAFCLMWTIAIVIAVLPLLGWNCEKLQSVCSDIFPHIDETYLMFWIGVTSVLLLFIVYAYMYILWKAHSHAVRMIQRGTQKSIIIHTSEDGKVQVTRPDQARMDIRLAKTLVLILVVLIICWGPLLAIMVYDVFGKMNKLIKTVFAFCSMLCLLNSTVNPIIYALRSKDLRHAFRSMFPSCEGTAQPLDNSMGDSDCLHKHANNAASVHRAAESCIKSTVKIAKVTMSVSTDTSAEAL
Cytochrome P450 2C9, sequence (P11712 whole entry): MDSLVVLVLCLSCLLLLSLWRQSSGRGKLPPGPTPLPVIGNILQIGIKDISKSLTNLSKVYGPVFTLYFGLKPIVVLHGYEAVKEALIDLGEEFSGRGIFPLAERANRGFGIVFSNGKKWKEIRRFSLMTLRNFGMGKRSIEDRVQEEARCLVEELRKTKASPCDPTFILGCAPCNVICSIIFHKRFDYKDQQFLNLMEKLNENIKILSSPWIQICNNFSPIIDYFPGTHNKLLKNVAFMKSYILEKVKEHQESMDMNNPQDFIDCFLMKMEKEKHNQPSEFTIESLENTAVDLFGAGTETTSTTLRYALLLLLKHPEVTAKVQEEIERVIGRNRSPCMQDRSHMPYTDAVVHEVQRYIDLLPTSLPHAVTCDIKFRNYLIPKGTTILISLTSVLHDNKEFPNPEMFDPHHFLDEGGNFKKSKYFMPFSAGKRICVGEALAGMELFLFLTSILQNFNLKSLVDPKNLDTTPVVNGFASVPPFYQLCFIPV
Cytochrome P450 2C19, sequence (P33261 whole entry): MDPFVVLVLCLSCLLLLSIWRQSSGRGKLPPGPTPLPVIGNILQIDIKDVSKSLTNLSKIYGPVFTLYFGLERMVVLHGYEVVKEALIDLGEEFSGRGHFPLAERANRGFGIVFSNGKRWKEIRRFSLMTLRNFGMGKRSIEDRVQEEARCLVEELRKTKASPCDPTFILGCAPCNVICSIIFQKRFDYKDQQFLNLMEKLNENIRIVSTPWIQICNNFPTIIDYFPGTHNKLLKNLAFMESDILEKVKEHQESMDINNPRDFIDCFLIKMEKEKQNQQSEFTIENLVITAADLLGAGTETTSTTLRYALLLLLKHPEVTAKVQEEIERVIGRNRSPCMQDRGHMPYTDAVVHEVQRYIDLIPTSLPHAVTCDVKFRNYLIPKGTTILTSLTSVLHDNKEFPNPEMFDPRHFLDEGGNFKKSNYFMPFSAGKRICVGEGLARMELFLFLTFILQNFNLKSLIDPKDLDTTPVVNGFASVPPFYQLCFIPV

For orientation: Ki means a measure of affinity in units of concentration, obtained from inhibition or displacement. In the case of `Cc1c(-c2cn(C(C)(C)c3ccccc3)cn2)nn(-c2ccccc2Cl)c1-c1ccc(Cl)cc1`, the inhibitory constant (Ki) on Cannabinoid receptor 1 [1] worked out at 1.1 nM; on Cannabinoid receptor 1 [2] it was 0.1 nM. The Ratio Ki in the data set filed under Homo sapiens was over 100.
The CLint scaled is the capacity of the preparation to metabolise the compound, expressed as a volume cleared per time. `Cc1c(-c2cnc(C(C)C)[nH]2)nn(-c2ccc(Cl)cc2Cl)c1-c1ccc(Cl)cc1`: the Ki on Cannabinoid receptor 1 [1] was found to be 7.2 nM; on Cannabinoid receptor 1 [2], 9.5 nM. Moreover, in the data set listed under Homo sapiens, the Ratio Ki is over 100. This compound also registered a CLint scaled in [3] of 42.5 mL/min/kg.
Regarding `Cc1c(-c2cn(C3CC3)cn2)nn(-c2ccccc2Cl)c1-c1ccc(Cl)cc1`, the Ki on Cannabinoid receptor 1 [1] came to 7.4 nM; at Cannabinoid receptor 1 [2], 7.9 nM. Also, the Ratio Ki in the data set filed under Homo sapiens is over 100.
Turning to `Cc1c(-c2ncn(C(C)C)c2C)nn(-c2ccc(Cl)cc2Cl)c1-c1ccc(Cl)cc1`, the Ki was found to be 5.7 nM on Cannabinoid receptor 1 [1] and 9 nM on Cannabinoid receptor 1 [2]. For the same compound, the Ratio Ki in the data set listed under Homo sapiens was over 100.
With `Cc1c(-c2cn(Cc3ccccc3)cn2)nn(-c2ccc(Cl)cc2Cl)c1-c1ccc(Cl)cc1`, the affinity on Cannabinoid receptor 1 [1] corresponds to a Ki of 14 nM. In addition, the Ratio Ki in the data set filed under Homo sapiens is over 100.
For `Cc1c(-c2cn(-c3ccccc3)cn2)nn(-c2ccccc2Cl)c1-c1ccc(Cl)cc1`, the values for the Ki at Cannabinoid receptor 1 [1] and on Cannabinoid receptor 1 [2] were 19 nM and 3.8 nM, respectively. In addition, in the data set listed under Homo sapiens, the Ratio Ki was over 100.
Regarding `Cc1c(-c2cn(C3CCCCC3)cn2)nn(-c2ccc(Cl)cc2Cl)c1-c1ccc(Cl)cc1`, the Ki worked out at 8.6 nM on Cannabinoid receptor 1 [1] and 4.7 nM at Cannabinoid receptor 1 [2]. Moreover, in the data set listed under Homo sapiens, the Ratio Ki was over 100.
On to `Cc1c(-c2ncc(C(C)C)[nH]2)nn(-c2ccc(Cl)cc2Cl)c1-c1ccc(Cl)cc1`, for which the Ki at Cannabinoid receptor 1 [1] came to 9.5 nM; on Cannabinoid receptor 1 [2] it was 5.2 nM. In the data set filed under Homo sapiens, the Ratio Ki was over 100. Also, in data set [3], the CLint scaled was 42.5 mL/min/kg.
Consider `CCn1cnc(-c2nn(-c3ccc(Cl)cc3Cl)c(-c3ccc(Cl)cc3)c2C)c1`, for which, on Cannabinoid receptor 1 [1], the Ki amounted to 20 nM. Besides, the Ratio Ki in the data set listed under Homo sapiens is over 100.
The corresponding values for `Cc1c(-c2cn(C(C)(C)C)cn2)nn(-c2ccc(Cl)cc2Cl)c1-c1ccc(Cl)cc1` are 14 nM and over 100.
`Cc1c(-c2nc[nH]c2C(C)C)nn(-c2ccccc2Cl)c1-c1ccc(Cl)cc1` showed a Ki on Cannabinoid receptor 1 [1] of 31 nM. The Ratio Ki in the data set filed under Homo sapiens was over 100.
On the same counts, the results for `CCc1c(-c2nn(-c3ccc(Cl)cc3Cl)c(-c3ccc(Cl)cc3)c2C)ncn1C(C)C` are 38 nM and over 100.
For the compound `Cc1c(-c2cn(C3CCC3)cn2)nn(-c2ccc(Cl)cc2Cl)c1-c1ccc(Cl)cc1`, the Ki on Cannabinoid receptor 1 [1] worked out at 10 nM; on Cannabinoid receptor 1 [2], 5 nM. Besides, the Ratio Ki in the data set listed under Homo sapiens was over 100.
The corresponding values for `Cc1c(-c2cn(C(C)(C)c3ccccc3)cn2)nn(-c2ccc(Cl)cc2Cl)c1-c1ccc(Cl)cc1` are 1.8 nM, 0.1 nM and over 100.
In the case of `Cc1c(-c2cn(C(C)C)cn2)nn(-c2ccc(Cl)cc2Cl)c1-c1ccc(Cl)cc1`, the values for the Ki on Cannabinoid receptor 1 [1] and on Cannabinoid receptor 1 [2] were 4.9 nM and 9 nM, respectively. The Ratio Ki in the data set listed under Homo sapiens is over 100. Also, the CLint scaled in [3] is 14 mL/min/kg.
`Cc1c(-c2ncn(C(C)C)c2CO)nn(-c2ccc(Cl)cc2Cl)c1-c1ccc(Cl)cc1`: on Cannabinoid receptor 1 [1], the Ki stood at 19 nM. In addition, the Ratio Ki in the data set listed under Homo sapiens is over 100.
Regarding `Cc1c(-c2cn(C3CCOCC3)cn2)nn(-c2ccc(Cl)cc2Cl)c1-c1ccc(Cl)cc1`, affinity on Cannabinoid receptor 1 [1] was put at a Ki of 25 nM. The Ratio Ki in the data set filed under Homo sapiens was over 100. The same compound registered a CLint scaled in data set [3] of under 7 mL/min/kg.
In general, clearance refers to a measure of how efficiently the substance is removed, as volume per time. Usually half-life stands for how long it takes for the measured level to halve. For orientation: Vd means a proportionality between amount in the body and measured concentration, not a real space. A word on the bioavailability: it is the share of a dose that reaches the circulation, judged against a reference dose that is usually intravenous. As usually defined, the IC50 is the concentration needed to halve the response being measured. Turning to `Cc1c(-c2cn(C(C)C)cn2)nn(-c2ccccc2Cl)c1-c1ccc(Cl)cc1`, the Ki at Cannabinoid receptor 1 [1] came out at 5.3 nM; on Cannabinoid receptor 1 [2], 7.6 nM. In the data set listed under Homo sapiens, the Ratio Ki was over 100. Besides, the clearance in the data set with Rattus norvegicus [4] was found to be 21 mL/min/kg. Further, the half-life in data set [5] was 1.5 h. This compound came in with a distribution volume (Vd) in data set [6] of 2.5 L/kg. In addition, the bioavailability in data set [7] is 42%. In addition, the Activity with Mus musculus [8] is on record as 56%; in the data set on Mus musculus [9], 33%; with Rattus norvegicus [10], 44%; with Rattus norvegicus [11], -31%. The concentration for half-maximal inhibition (IC50) against Cytochrome P450 3A4, at Cytochrome P450 1A2, against Cytochrome P450 2C9, at Cytochrome P450 2C19 and against Cytochrome P450 2D6 was over 10000 nM throughout.
